Reference: ChEMBL document CHEMBL1240385, “Detection of KPC in Acinetobacter spp. in Puerto Rico” (2010)
≈ marks a conversion by molar mass, not a printed value.

Legend:
Assay type in all cases: functional
[1] = (§1) Antibacterial activity against Acinetobacter calcoaceticus/baumannii complex isolate M2AC9-31 expressing KPC beta lactamase
[2] = (§2) Antibacterial activity against Acinetobacter calcoaceticus/baumannii complex isolate M3AC9-7 expressing KPC beta lactamase
[3] = (§3) Antibacterial activity against Acinetobacter calcoaceticus/baumannii complex isolate N2AC9-18 expressing KPC beta lactamase
Escherichia coli = assay: Antibacterial activity against Escherichia coli ATCC 25922 […]
[4] = (§4) Antibacterial activity against Acinetobacter calcoaceticus/baumannii complex isolate M3AC9-2 expressing KPC beta lactamase
[5] = (§5) Antibacterial activity against Acinetobacter calcoaceticus/baumannii complex isolate M3AC9-4 expressing KPC beta lactamase
[6] = (§6) Antibacterial activity against Acinetobacter calcoaceticus/baumannii complex isolate C1AC9-24 expressing KPC beta lactamase
[7] = (§7) Antibacterial activity against Acinetobacter calcoaceticus/baumannii complex isolate M3AC9-6 expressing KPC beta lactamase
[8] = (§8) Antibacterial activity against Acinetobacter calcoaceticus/baumannii complex isolate MC4AC9-30 expressing KPC beta lactamase
[9] = (§9) Antibacterial activity against Acinetobacter calcoaceticus/baumannii complex isolate MC1AC9-26 expressing KPC beta lactamase
[10] = (§10) Antibacterial activity against Acinetobacter calcoaceticus/baumannii complex isolate W2AC8-S10 expressing OXA-51
[11] = (§11) Antibacterial activity against Acinetobacter calcoaceticus/baumannii complex isolate N2AC9-19 expressing KPC beta lactamase
Pseudomonas aeruginosa = assay: Antibacterial activity against Pseudomonas aeruginosa ATCC 27853 […]
[12] = tested on: Acinetobacter calcoaceticus/baumannii complex; assay: as §1
[13] = tested on: Acinetobacter calcoaceticus/baumannii complex; assay: as §2
[14] = tested on: Acinetobacter calcoaceticus/baumannii complex; assay: as §3
[15] = tested on: Acinetobacter calcoaceticus/baumannii complex; assay: as §4
[16] = tested on: Acinetobacter calcoaceticus/baumannii complex; assay: as §5
[17] = tested on: Acinetobacter calcoaceticus/baumannii complex; assay: as §6
[18] = tested on: Acinetobacter calcoaceticus/baumannii complex; assay: as §7
[19] = tested on: Acinetobacter calcoaceticus/baumannii complex; assay: as §8
[20] = tested on: Acinetobacter calcoaceticus/baumannii complex; assay: as §9
[21] = tested on: Acinetobacter calcoaceticus/baumannii complex; assay: as §10
[22] = tested on: Acinetobacter calcoaceticus/baumannii complex; assay: as §11

## CO/N=C(\C(=O)N[C@@H]1C(=O)N2C(C(=O)[O-])=C(C[N+]3(C)CCCC3)CS[C@H]12)c1csc(N)n1
[1]
  MIC: > 16 µg/mL
[2]
  MIC: > 16 µg/mL
[3]
  MIC: > 16 µg/mL
Escherichia coli
  MIC: 2 µg/mL (≈ 4.16 µM)
[4]
  MIC: > 16 µg/mL
[5]
  MIC: > 16 µg/mL
[6]
  MIC: > 16 µg/mL
[7]
  MIC: > 16 µg/mL
[8]
  MIC: > 16 µg/mL
[9]
  MIC: > 16 µg/mL
[10]
  MIC: 2 µg/mL (≈ 4.16 µM)
[11]
  MIC: > 16 µg/mL
Pseudomonas aeruginosa
  MIC: < 2 µg/mL

## NCC[C@H](O)C(=O)N[C@@H]1C[C@H](N)[C@@H](O[C@H]2O[C@H](CN)[C@@H](O)[C@H](O)[C@H]2O)[C@H](O)[C@H]1O[C@H]1O[C@H](CO)[C@@H](O)[C@H](N)[C@H]1O [AMIKACIN]
[1]
  MIC: > 32 µg/mL
[2]
  MIC: > 32 µg/mL
[3]
  MIC: > 32 µg/mL
Escherichia coli
  MIC: 4 µg/mL (≈ 6.83 µM)
[4]
  MIC: > 32 µg/mL
[5]
  MIC: > 32 µg/mL
[6]
  MIC: > 32 µg/mL
[7]
  MIC: > 32 µg/mL
[8]
  MIC: > 32 µg/mL
[9]
  MIC: > 32 µg/mL
[10]
  MIC: 4 µg/mL (≈ 6.83 µM)
[11]
  MIC: > 32 µg/mL
Pseudomonas aeruginosa
  MIC: < 4 µg/mL

## CO/N=C(\C(=O)N[C@@H]1C(=O)N2C(C(=O)O)=C(COC(C)=O)CS[C@H]12)c1csc(N)n1 [CEFOTAXIME]
[1]
  MIC: > 32 µg/mL
[2]
  MIC: > 32 µg/mL
[3]
  MIC: > 32 µg/mL
Escherichia coli
  MIC: 1 µg/mL (≈ 2.2 µM)
[4]
  MIC: > 32 µg/mL
[5]
  MIC: > 32 µg/mL
[6]
  MIC: > 32 µg/mL
[7]
  MIC: > 32 µg/mL
[8]
  MIC: > 32 µg/mL
[9]
  MIC: > 32 µg/mL
[10]
  MIC: 4 µg/mL (≈ 8.78 µM)
[11]
  MIC: > 32 µg/mL
Pseudomonas aeruginosa
  MIC: 16 µg/mL (≈ 35.1 µM)

## CC(C)(O/N=C(\C(=O)N[C@@H]1C(=O)N2C(C(=O)[O-])=C(C[n+]3ccccc3)CS[C@H]12)c1csc(N)n1)C(=O)O [CEFTAZIDIME]
[1]
  MIC: > 16 µg/mL
[2]
  MIC: > 16 µg/mL
[3]
  MIC: > 16 µg/mL
Escherichia coli
  MIC: 1 µg/mL (≈ 1.83 µM)
[4]
  MIC: > 16 µg/mL
[5]
  MIC: > 16 µg/mL
[6]
  MIC: > 16 µg/mL
[7]
  MIC: > 16 µg/mL
[8]
  MIC: > 16 µg/mL
[9]
  MIC: > 16 µg/mL
[10]
  MIC: 2 µg/mL (≈ 3.66 µM)
[11]
  MIC: > 16 µg/mL
Pseudomonas aeruginosa
  MIC: 2 µg/mL (≈ 3.66 µM)

## O=C(O)c1cn(C2CC2)c2cc(N3CCNCC3)c(F)cc2c1=O [CIPROFLOXACIN]
[10]
  MIC: 0.25 µg/mL (≈ 0.754 µM)

## C[C@@H](O)[C@H]1C(=O)N2C(C(=O)O)=C(S[C@@H]3CN[C@H](CNS(N)(=O)=O)C3)[C@H](C)[C@H]12 [DORIPENEM]
[1]
  MIC: > 2 µg/mL
[2]
  MIC: > 2 µg/mL
[3]
  MIC: > 2 µg/mL
Escherichia coli
  MIC: 0.12 µg/mL (≈ 0.285 µM)
[4]
  MIC: > 2 µg/mL
[5]
  MIC: > 2 µg/mL
[6]
  MIC: > 2 µg/mL
[7]
  MIC: > 2 µg/mL
[8]
  MIC: > 2 µg/mL
[9]
  MIC: > 2 µg/mL
[10]
  MIC: 0.12 µg/mL (≈ 0.285 µM)
[11]
  MIC: > 2 µg/mL
Pseudomonas aeruginosa
  MIC: 0.5 µg/mL (≈ 1.19 µM)

## C[C@@H](O)[C@H]1C(=O)N2C(C(=O)O)=C(SCCNC=N)C[C@H]12 [IMIPENEM ANHYDROUS]
[1]
  MIC: 8 µg/mL (≈ 26.7 µM)
[2]
  MIC: > 8 µg/mL
[3]
  MIC: > 8 µg/mL
Escherichia coli
  MIC: 1 µg/mL (≈ 3.34 µM)
[4]
  MIC: > 8 µg/mL
[5]
  MIC: > 8 µg/mL
[6]
  MIC: 4 µg/mL (≈ 13.4 µM)
[7]
  MIC: > 8 µg/mL
[8]
  MIC: 8 µg/mL (≈ 26.7 µM)
[9]
  MIC: 8 µg/mL (≈ 26.7 µM)
[10]
  MIC: 1 µg/mL (≈ 3.34 µM)
[11]
  MIC: > 8 µg/mL
Pseudomonas aeruginosa
  MIC: 2 µg/mL (≈ 6.68 µM)

## C[C@H]1COc2c(N3CCN(C)CC3)c(F)cc3c(=O)c(C(=O)O)cn1c23.C[C@H]1COc2c(N3CCN(C)CC3)c(F)cc3c(=O)c(C(=O)O)cn1c23.O [LEVOFLOXACIN]
[1]
  MIC: > 8 µg/mL
[2]
  MIC: > 8 µg/mL
[3]
  MIC: > 8 µg/mL
[4]
  MIC: > 8 µg/mL
[5]
  MIC: > 8 µg/mL
[6]
  MIC: > 8 µg/mL
[7]
  MIC: > 8 µg/mL
[8]
  MIC: > 8 µg/mL
[9]
  MIC: > 8 µg/mL
[10]
  MIC: 1 µg/mL
[11]
  MIC: > 8 µg/mL
Pseudomonas aeruginosa
  MIC: < 1 µg/mL

## C[C@@H](O)[C@H]1C(=O)N2C(C(=O)O)=C(S[C@@H]3CN[C@H](C(=O)N(C)C)C3)[C@H](C)[C@H]12 [MEROPENEM]
[1]
  MIC: > 8 µg/mL
[2]
  MIC: > 8 µg/mL
[3]
  MIC: > 8 µg/mL
Escherichia coli
  MIC: 1 µg/mL (≈ 2.61 µM)
[4]
  MIC: > 8 µg/mL
[5]
  MIC: > 8 µg/mL
[6]
  MIC: 4 µg/mL (≈ 10.4 µM)
[7]
  MIC: > 8 µg/mL
[8]
  MIC: > 8 µg/mL
[9]
  MIC: > 8 µg/mL
[10]
  MIC: 1 µg/mL (≈ 2.61 µM)
[11]
  MIC: > 8 µg/mL
Pseudomonas aeruginosa
  MIC: < 1 µg/mL

## CN(C)c1ccc(O)c2c1C[C@H]1C[C@H]3[C@H](N(C)C)C(O)=C(C(N)=O)C(=O)[C@@]3(O)C(O)=C1C2=O [MINOCYCLINE]
[1]
  MIC: < 2 µg/mL
[2]
  MIC: < 2 µg/mL
[3]
  MIC: < 2 µg/mL
Escherichia coli
  MIC: 2 µg/mL (≈ 4.37 µM)
[4]
  MIC: < 2 µg/mL
[5]
  MIC: 4 µg/mL (≈ 8.74 µM)
[6]
  MIC: 8 µg/mL (≈ 17.5 µM)
[7]
  MIC: < 2 µg/mL
[8]
  MIC: 4 µg/mL (≈ 8.74 µM)
[9]
  MIC: < 2 µg/mL
[10]
  MIC: 2 µg/mL (≈ 4.37 µM)
[11]
  MIC: < 2 µg/mL
Pseudomonas aeruginosa
  MIC: 16 µg/mL (≈ 35 µM)

## CN(C)c1cc(NC(=O)CNC(C)(C)C)c(O)c2c1C[C@H]1C[C@H]3[C@H](N(C)C)C(O)=C(C(N)=O)C(=O)[C@@]3(O)C(O)=C1C2=O [TIGECYCLINE]
[1]
  MIC: 1 µg/mL (≈ 1.71 µM)
[2]
  MIC: 0.5 µg/mL (≈ 0.854 µM)
[3]
  MIC: 1 µg/mL (≈ 1.71 µM)
Escherichia coli
  MIC: 0.25 µg/mL (≈ 0.427 µM)
[4]
  MIC: 0.5 µg/mL (≈ 0.854 µM)
[5]
  MIC: 0.25 µg/mL (≈ 0.427 µM)
[6]
  MIC: 1 µg/mL (≈ 1.71 µM)
[7]
  MIC: 0.5 µg/mL (≈ 0.854 µM)
[8]
  MIC: 0.5 µg/mL (≈ 0.854 µM)
[9]
  MIC: 2 µg/mL (≈ 3.41 µM)
[10]
  MIC: < 0.25 µg/mL
[11]
  MIC: 2 µg/mL (≈ 3.41 µM)
Pseudomonas aeruginosa
  MIC: 8 µg/mL (≈ 13.7 µM)

## COLISTIN
[12]
  MIC: 0.5 µg/mL
[13]
  MIC: 1 µg/mL
[14]
  MIC: 0.5 µg/mL
Escherichia coli
  MIC: 0.25 µg/mL
[15]
  MIC: 0.5 µg/mL
[16]
  MIC: 1 µg/mL
[17]
  MIC: 1 µg/mL
[18]
  MIC: 1 µg/mL
[19]
  MIC: 0.5 µg/mL
[20]
  MIC: 0.5 µg/mL
[21]
  MIC: 0.25 µg/mL
[22]
  MIC: 0.5 µg/mL
Pseudomonas aeruginosa
  MIC: 1 µg/mL

## GENTAMICIN
[12]
  MIC: > 8 µg/mL
[13]
  MIC: < 1 µg/mL
[14]
  MIC: > 8 µg/mL
Escherichia coli
  MIC: 1 µg/mL
[15]
  MIC: 2 µg/mL
[16]
  MIC: > 8 µg/mL
[17]
  MIC: > 8 µg/mL
[18]
  MIC: 2 µg/mL
[19]
  MIC: > 8 µg/mL
[20]
  MIC: 8 µg/mL
[21]
  MIC: 1 µg/mL
[22]
  MIC: > 8 µg/mL
Pseudomonas aeruginosa
  MIC: < 1 µg/mL

## POLYMYXIN B
[12]
  MIC: < 0.25 µg/mL
[13]
  MIC: 0.5 µg/mL
[14]
  MIC: < 0.25 µg/mL
Escherichia coli
  MIC: 0.25 µg/mL
[15]
  MIC: < 0.25 µg/mL
[16]
  MIC: < 0.25 µg/mL
[17]
  MIC: 0.5 µg/mL
[18]
  MIC: 0.5 µg/mL
[19]
  MIC: 0.5 µg/mL
[20]
  MIC: < 0.25 µg/mL
[21]
  MIC: 0.5 µg/mL
[22]
  MIC: < 0.25 µg/mL
Pseudomonas aeruginosa
  MIC: 1 µg/mL
